Measured values reported in patent US8729089B2 (Gilead Sciences, Inc., priority 2006, dated 2014).

What was measured:
[1] = CC50 assay (CellTiter-Glo) in Huh-7 HCV replicon cells; type: cell-based, human; conditions: human, 3 days incubation, CellTiter-Glo readout
Method in brief: (§1)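 Huh-7 cells carrying an HCV replicon (6000/well) exposed to 3-fold serial compound dilutions for 3 days at 37 °C, final DMSO 0.5% where used. EC50 read as replicon luciferase luminescence after cell lysis; CC50 from CellTiter-Glo luminescence after 10 min at room temperature.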

[2] = test system: HCV replicon in human hepatoma Huh-7 cell line; assay: Anti-HCV replicon assay (EC50, luciferase); type: cell-based; conditions: Hepatitis C virus, Huh-7, 72 h
Method in brief: as §1

| Compound | CC50 at 3 days [1] | EC50 [2] |
| --- | --- | --- |
| CCOc1nc(NCc2ccc(F)cc2)nc2ccc(-c3ccc(NC(=O)C4(O)CC4)cc3)nc12 [Example 101, 1-Hydroxy-cyclopropanecarboxylic acid {4-[4-ethoxy-2-(4-fluoro-benzylamino)-pyrido[3,2-d]pyrimidin-6-yl]-phenyl}-amide] | 5 to 25 µM | < 0.1 µM |
| CCOc1nc(NCc2ccc(F)cc2)nc2ccc(-c3cccc(N(CCO)S(C)(=O)=O)c3)nc12 [Example 102, N-{3-[4-Ethoxy-2-(4-fluoro-benzylamino)-pyrido[3,2-d]pyrimidin-6-yl]-phenyl}-N-(2-hydroxy-ethyl)-methanesulfonamide] | 5 to 25 µM | < 0.1 µM |
| CCOc1nc(NCc2ccc(F)cc2)nc2ccc(-c3ccc(C(=O)NC(C)(C)CN4CCOCC4)cc3)nc12 [Example 103, N-(1,1-Dimethyl-2-morpholin-4-yl-ethyl)-4-[4-ethoxy-2-(4-fluoro-benzylamino)-pyrido[3,2-d]pyrimidin-6-yl]-benzamide] | < 5 µM | < 0.1 µM |
| CCOc1nc(NCc2ccc(F)cc2)nc2ccc(-c3ccc(N4CCCC4=O)cc3)nc12 [Example 104, 1-{4-[4-Ethoxy-2-(4-fluoro-benzylamino)-pyrido[3,2-d]pyrimidin-6-yl]-phenyl}-pyrrolidin-2-one] | 5 to 25 µM | < 0.1 µM |
| CCOc1nc(NCc2ccc(F)cc2)nc2ccc(-c3ccc(NC(=O)C(C)(C)N)cc3)nc12 [Example 105, 2-Amino-N-{4-[4-ethoxy-2-(4-fluoro-benzylamino)-pyrido[3,2-d]pyrimidin-6-yl]-phenyl}-2-methyl-propionamide] | < 5 µM | < 0.1 µM |
| CCOc1nc(NCc2ccc(F)cc2F)nc2ccc(-c3ccc(C(=O)NC4CC4)cc3)nc12 [Example 107, N-Cyclopropyl-4-[2-(2,4-difluoro-benzylamino)-4-ethoxy-pyrido[3,2-d]pyrimidin-6-yl]-benzamide] | 5 to 25 µM | < 0.1 µM |
| CCOc1nc(NCc2ccc(F)cc2F)nc2ccc(-c3ccc(F)cc3)nc12 [Example 108, (2,4-Difluoro-benzyl)-{4-ethoxy-6-(4-fluoro-phenyl)-pyrido[3,2-d]pyrimidin-2-yl]-amine] | 5 to 25 µM | < 0.1 µM |
| CCOc1nc(NCc2ccc(S(N)(=O)=O)cc2)nc2ccc(-c3ccc(F)cc3)nc12 [Example 109, 4-{[4-ethoxy-6-(4-fluoro-phenyl)-pyrido[3,2-d]pyrimidin-2-ylamino]-methyl}-benzenesulfonamide] | 5 to 25 µM | < 0.1 µM |
| NS(=O)(=O)c1ccc(CNc2nc(OC3CCCC3)c3nc(-c4ccc(F)cc4)ccc3n2)cc1 [Example 110, 4-{[4-Cyclopentyloxy-6-(4-fluoro-phenyl)-pyrido[3,2-d]pyrimidin-2-ylamino]-methyl}-benzenesulfonamide] | 5 to 25 µM | < 0.1 µM |
| NS(=O)(=O)c1ccc(CNc2nc(OC3CCC3)c3nc(-c4ccc(F)cc4)ccc3n2)cc1 [Example 111, 4-{[4-Cyclobutoxy-6-(4-fluoro-phenyl)-pyrido[3,2-d]pyrimidin-2-ylamino]-methyl}-benzenesulfonamide] | 5 to 25 µM | < 0.1 µM |
| CCCc1nc(NCc2ccc(S(N)(=O)=O)cc2)nc2ccc(-c3ccc(F)cc3)nc12 [Example 112, 4-{[6-(4-Fluoro-phenyl)-4-propyl-pyrido[3,2-d]pyrimidin-2-ylamino]-methyl}-benzenesulfonamide] | < 5 µM | < 0.1 µM |
| CCOc1nc(N[C@H](C)c2ccccc2)nc2ccc(-c3ccc(F)cc3)nc12 [Example 113, [4-Ethoxy-6-(4-fluoro-phenyl)-pyrido[3,2-d]pyrimidin-2-yl]-(1-phenyl-ethyl)-amine] | > 25 µM | < 0.1 µM |
| CCOc1nc(NCc2nccs2)nc2ccc(-c3ccc(F)cc3)nc12 [Example 114, [4-Ethoxy-6-(4-fluoro-phenyl)-pyrido[3,2-d]pyrimidin-2-yl]-thiazol-2-ylmethyl-amine] | 5 to 25 µM | < 0.1 µM |
| CCOc1nc(NCc2cocn2)nc2ccc(-c3ccc(F)cc3)nc12 [Example 115, [4-Ethoxy-6-(4-fluoro-phenyl)-pyrido[3,2-d]pyrimidin-2-yl]-oxazol-4-ylmethyl-amine] | 5 to 25 µM | < 0.1 µM |
| CCOc1nc(NCc2ccon2)nc2ccc(-c3ccc(F)cc3)nc12 [Example 116, [4-Ethoxy-6-(4-fluoro-phenyl)-pyrido[3,2-d]pyrimidin-2-yl]-isoxazol-3-ylmethyl-amine] | > 25 µM | < 0.1 µM |
| CCOc1nc(NCc2ccc(CS(=O)(=O)NC(C)C)cc2)nc2ccc(-c3ccc(F)cc3)nc12 [Example 117, C-(4-{[4-Ethoxy-6-(4-fluoro-phenyl)-pyrido[3,2-d]pyrimidin-2-ylamino]-methyl}-phenyl)-N-isopropyl-methanesulfonamide] | 5 to 25 µM | < 0.1 µM |
| CCOc1nc(NCCc2ccccc2)nc2ccc(-c3ccc(F)cc3)nc12 [Example 118, [4-Ethoxy-6-(4-fluoro-phenyl)-pyrido[3,2-d]pyrimidin-2-yl]-phenethyl-amine] | 5 to 25 µM | < 0.1 µM |
| CCOc1nc(NCc2ccc(S(C)(=O)=O)cc2)nc2ccc(-c3ccc(F)cc3)nc12 [Example 119, [4-Ethoxy-6-(4-fluoro-phenyl)-pyrido[3,2-d]pyrimidin-2-yl]-(4-methanesulfonyl-benzyl)-amine] | < 5 µM | < 0.1 µM |
| CCOc1nc(NCc2ccc(S(N)(=O)=O)cc2)nc2ccc(-c3ccc(NC(=O)[C@H]4CCNC4)c(F)c3)nc12 [Example 120, (S)-4-{[4-Ethoxy-6-(3-fluoro-4-(pyrrolidine-3-carboxamido)-phenyl)-pyrido[3,2-d]pyrimidin-2-ylamino]-methyl}-benzenesulfonamide] | 5 to 25 µM | < 0.1 µM |
| CCOc1nc(NCc2ccc(S(N)(=O)=O)cc2)nc2ccc(-c3ccc(NC(=O)[C@H]4CCNC4)cc3)nc12 [Example 121, (S)-4-{[4-Ethoxy-6-(4-(pyrrolidine-3-carboxamido)-phenyl)-pyrido[3,2-d]pyrimidin-2-ylamino]-methyl}-benzenesulfonamide] | > 25 µM | < 0.1 µM |
| CCOc1nc(NCc2ccc(S(N)(=O)=O)cc2)nc2ccc(-c3ccc(N4CCC(O)C4=O)cc3)nc12 (stereo not shown) [Example 122, 4-{[4-Ethoxy-6-(4-(3-hydroxy-2-oxopyrrolidin-1-yl)-phenyl)-pyrido[3,2-d]pyrimidin-2-ylamino]-methyl}-benzenesulfonamide] | > 25 µM | < 0.1 µM |
| CCOc1nc(NCc2ccc(S(N)(=O)=O)cc2)nc2ccc(-c3ccc(NC(=O)NCCN4CCOCC4)cc3)nc12 [Example 123, 4-{[4-Ethoxy-6-(4-(3-(2-(morpholin-4-yl)ethyl)ureido)-phenyl)-pyrido[3,2-d]pyrimidin-2-ylamino]-methyl}-benzenesulfonamide] | 5 to 25 µM | < 0.1 µM |
| CCOc1nc(NCc2ccc(S(N)(=O)=O)cc2)nc2ccc(-c3ccc(NC(=O)NCCN4CCCC4)cc3)nc12 [Example 124, 4-{[4-Ethoxy-6-(4-(3-(2-(pyrrolidin-1-yl)ethyl)ureido)-phenyl)-pyrido[3,2-d]pyrimidin-2-ylamino]-methyl}-benzenesulfonamide] | 5 to 25 µM | < 0.1 µM |
